Results from patent publication US9382257B2, “Substituted pyrrolo[2,3-b]pyrazines as serine/threonine kinase inhibitors” (Genentech, Inc., priority 2002, dated 2016).

Biological target: T1, human ERK-2 (Homo sapiens, UniProt P28482)
T1 construct: n-terminal 6-His fusion protein in E. coli and corresponding to aa 8-360; 6-His (N); made in house; host or cells: E. coli
Test: Labchip Kinase ERK Assay (Example 3)
Assay type: biochemical
Settings: LabChip Erk Assay (footnote 2), 25 μM ATP, Caliper LabChip 3000; read-out: ERK Inhibition IC50
Description: Compounds were tested in an enzymatic assay using human ERK-2 recombinantly expressed as an n-terminal 6-His fusion protein in E. coli and corresponding to aa 8-360. The substrate used was 5FAM-IPTSPITTTYFFFKKK-COOH (Caliper cat #760352). Test compounds were diluted in DMSO in 3-fold serial dilutions at 100× final concentrations. […] The assay was run at ambient temperature in a white 384-well polypropylene plate (Nunc, Inc of Naperville, Ill.; Cat. 267462) for 60 minutes then stopped by addition of EDTA. Percent substrate phosphorylated was determined by microfluidic separation using a Caliper LabChip 3000 instrument. Percent inhibition was plotted against compound concentration and IC50 values were determined using a four-parameter fit.

T1 sequence (P28482 8-360): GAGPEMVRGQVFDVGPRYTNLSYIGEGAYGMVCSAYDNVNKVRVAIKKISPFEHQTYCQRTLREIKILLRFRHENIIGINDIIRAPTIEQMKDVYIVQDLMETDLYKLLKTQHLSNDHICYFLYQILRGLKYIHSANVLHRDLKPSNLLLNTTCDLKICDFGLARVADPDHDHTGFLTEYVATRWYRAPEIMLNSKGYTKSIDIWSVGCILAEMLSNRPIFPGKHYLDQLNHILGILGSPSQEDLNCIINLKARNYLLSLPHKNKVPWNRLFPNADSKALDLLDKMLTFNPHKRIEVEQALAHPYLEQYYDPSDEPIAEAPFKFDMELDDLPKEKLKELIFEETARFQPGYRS

Which IC50 does the source give for Cc1cc(-c2cnc3[nH]cc(-c4cnn(Cc5cccc(F)c5)c4)c3n2)ccn1 [I-12, 7-[1-(3-fluoro-benzyl)-1H-pyrazol-4-yl]-2-(2-methyl-pyridin-4-yl)-5H-pyrrolo[2,3-b]pyrazine] here?
Its IC50 is 22.1 nM.

For Cc1nn(C)c(C)c1-c1cnc2[nH]cc(-c3cnn(Cc4ccccc4)c3)c2n1 [I-13, 7-(1-benzyl-1H-pyrazol-4-yl)-2-(1,3,5-trimethyl-1H-pyrazol-4-yl)-5H-pyrrolo[2,3-b]pyrazine], which IC50 is on record?
The IC50 was 105 nM.

Which IC50 does the source give for Cc1noc(C)c1-c1cnc2[nH]cc(-c3cnn(Cc4ccccc4)c3)c2n1 [I-14, 7-(1-benzyl-1H-pyrazol-4-yl)-2-(3,5-dimethyl-isoxazol-4-yl)-5H-pyrrolo[2,3-b]pyrazine] here?
The IC50 was 110 nM.

c1ccc(Cn2cc(-c3c[nH]c4ncc(-c5ccc6cn[nH]c6c5)nc34)cn2)cc1 [I-19, 7-(1-benzyl-1H-pyrazol-4-yl)-2-(1H-indazol-6-yl)-5H-pyrrolo[2,3-b]pyrazine] was tested. Which IC50 did it give?
The IC50 was 343 nM.

How did the IC50 turn out when Cc1[nH]ncc1-c1cnc2[nH]cc(-c3cnn(Cc4cccc(OC(F)(F)F)c4)c3)c2n1 [I-22, 2-(5-methyl-1H-pyrazol-4-yl)-7-[1-(3-trifluoromethoxy-benzyl)-1H-pyrazol-4-yl]-5H-pyrrolo[2,3-b]pyrazine] was run?
The IC50 was 14.9 nM.

With c1cncc(Cn2cc(-c3c[nH]c4ncc(-c5ccncc5)nc34)cn2)c1 [I-23, 2-pyridin-4-yl-7-(1-pyridin-3-ylmethyl-1H-pyrazol-4-yl)-5H-pyrrolo[2,3-b]pyrazine] as the compound, how does the IC50 read?
Its IC50 is 65.8 nM.

Which IC50 does the source give for Cc1cc(-c2c[nH]c3ncc(-c4ccncc4)nc23)cnc1F [II-1, 7-(6-fluoro-5-methyl-pyridin-3-yl)-2-pyridin-4-yl-5H-pyrrolo[2,3-b]pyrazine] here?
The IC50 was 53.1 nM.

Cc1cc(-c2c[nH]c3ncc(-c4ccncc4)nc23)cnc1Cl [II-6, 7-(6-chloro-5-methyl-pyridin-3-yl)-2-pyridin-4-yl-5H-pyrrolo[2,3-b]pyrazine] was tested. Which IC50 did it give?
Its IC50 is 47.8 nM.
